From patent publication US8597640B2, “Over-the-counter vitamin/nutriceutical formulation that provides neuroprotection and maintains or improves cognitive performance in alzheimer's disease and normal aging” (University of Massachusetts Lowell, priority 2007, dated 2013)
“Also recorded” adds a separate entry of the source.

Tests used:
[1] = 12 months, Aisen et al. 2003; cited from earlier work
[2] = 12 months, Aisen et al. 2003; cited from earlier work; remark: listed apart in the source
gamma secretase = experiment: Gamma secretase activity in brain homogenates (fluorescent kit); assay type: in vivo, mouse
Description: (§1) Adult (9-12 months of age) C57B/6 mice that either express (“normal”) or lack murine ApoE (ApoE−/− mice) received a diet (“AIN-76”; Purina/Mother Hubbard, Inc.) either lacking folate and vitamin E (defined as the “deficient diet”) or supplemented with folic acid (4 mg/kg), and vitamin E (50 IU/kg total diet wet weight) (defined as the “complete diet”). The deficient diet was also supplemented in all cases with iron ([…] total diet) as a pro-oxidant (Mihalick et al., (2004) Neuromol. Med. 4:197-202; Shea and Rogers, (2002) Mol. Brain. Res. 108:1-6). Additional groups of mice maintained on each diet received SAM for the entire month (100 mg/kg diet; Chan et al., (2007) in press; Tchantchou et al., (2005) J. Alzheimers Dis. 7:135-138). Following 1 month of maintenance on these diets, mice were sacrificed by cervical dislocation, and the frontal portion of the brain (encompassing cortex and hippocampus) was immediately removed.
Gamma secretase activity was quantified by fluorescent spectroscopy using a gamma secretase activity kit according to the manufacturer's instructions (R&D Systems, Minneapolis, MN), using the APP peptide GVVIATVIV (SEQ ID NO: 5) conjugated to the reporter molecules EDANS and DABCYL and measuring the cleavage-dependent release of signal at 495 nm.

normal C57B/6 mice = conditions: SAM administered in isolation; prior studies (Chan et al. 2007); cited from earlier work
Abeta = Abeta levels in murine brain by immunoblot; assay type: in vivo, mouse; conditions: normal and ApoE−/− mice
Description: as §1
A portion (40-50 mg) of the above cortical/hippocampal sample was homogenized with 4 volumes of Tris-saline (50 mM Tris HCl, pH 7.4, 150 mM NaCl containing 1 mM EGTA, 0.5 mM diisopropyl fluorophosphate, 0.5 mM phenylmethylsulfonyl fluoride, 1 μg/ml N-p-tosyl-L-lysine chloromethylketone, 0.1 μg/ml pepstatin, 1 μg/ml antipain, and 1 μg/ml leupeptin). The homogenate was centrifuged at […] for 50 minutes at 4° C. […]

[3] = test system: presenilin-1 (PS-1) expression; experiment: PS-1 expression by RT-PCR in murine brain; assay type: in vivo, mouse; conditions: normal and ApoE−/− mice, deficient diet + SAM 100 mg/kg diet, 1 month
Description: Adult (9-12 months of age) C57B/6 mice that either express (“normal”) or lack murine ApoE (ApoE−/− mice) received a diet (“AIN-76”; Purina/Mother Hubbard, Inc.) either lacking folate and vitamin E (defined as the “deficient diet”) or supplemented with folic acid (4 mg/kg), and vitamin E (50 IU/kg total diet wet weight) (defined as the “complete diet”). The deficient diet was also supplemented in all cases with iron ([…] total diet) as a pro-oxidant (Mihalick et al., (2004) Neuromol. Med. 4:197-202; Shea and Rogers, (2002) Mol. Brain. Res. 108:1-6). Additional groups of mice maintained on each diet received SAM for the entire month (100 mg/kg diet; Chan et al., (2007) in press; Tchantchou et al., (2005) J. Alzheimers Dis. 7:135-138). […]
To analyze PS-1 expression, total mRNA was extracted from the above homogenate using an RNA isolation kit and stored at −20° C. as described (Chan and Shea, (2006) J. Alzheimers Dis. 9:399-405). Transcription of murine PS-1 was analyzed using a set of primers 5′-[…]-3′ (SEQ ID NO: 1) and 5′-[…]-3′ (SEQ ID NO: 2) respectively, which yielded a product of 557 base pairs (bp) of the murine PS-1 gene. […] Gels were visualized under UV using a Gel Doc 2000 machine from BioRad and analyzed using Quantity One software. […]

[4] = test system: mice lacking one or both murine MTHFR alleles; conditions: SAM supplementation; Chan et al. (2007) in press; cited from earlier work
[5] = normal mice, deficient diet + SAM

SMILES	decline in ADCS-ADL [1]	performance on the NPI [2]	effect on gamma-secretase activity (gamma secretase; ApoE−/− mice, SAM supplementation, FIG. 22)	gamma-secretase activity, less than levels on complete diet (gamma secretase; ApoE−/− mice, deficient diet + SAM)	effect on deficient-diet-induced increase in gamma-secretase activity (gamma secretase; [5])	gamma-secretase activity relative to complete diet (gamma secretase; [5])	performance of normal mice (normal C57B/6 mice)	effect on folate-deprivation-induced increase in Abeta levels (Abeta; folate-deficient diet + SAM)	Abeta levels, SAM in the presence of folate (Abeta; folate-supplemented diet + SAM)	effect on deficient-diet-induced increase in PS-1 expression [3]	cognitive performance [4]
CS(=O)(=O)c1ccc(C2=C(c3ccccc3)C(=O)OC2)cc1 [rofecoxib]	nor prevented decline in ADCS-ADL	Neither naproxen nor rofecoxib statistically improved performance on the NPI									
C[S+](CC[C@H](N)C(=O)O)C[C@H]1O[C@@H](n2cnc3c(N)ncnc32)[C@H](O)[C@@H]1O (stereo partly shown) [SAM, S-adenosyl methionine]			statistically (p<0.02) reduced secretase activity	approx. 40%	attenuated by half; also recorded: reduced secretase activity in normal mice (not statistically significant)	approx. 35%	did not improve the performance of normal mice	prevented these increases; also recorded: alleviated these increases	did not alter values obtained with folate alone	prevented these increases; also recorded: prevented or attenuated these increases	improved cognitive performance
COc1ccc2cc([C@H](C)C(=O)O)ccc2c1 [naproxen]	nor prevented decline in ADCS-ADL	Neither naproxen nor rofecoxib statistically improved performance on the NPI									
